# Read-outs that look alike come from different tables or passages of the source. Non-standard residues stand in square brackets, D forms with d. Residues, ends and D or L forms follow the SMILES beside them. No end group written: not given here. *: point of attachment. X1 = CC(C)C[C@H](NC[C@H](Cc1ccccc1)N*)C(N)=O; X2 = CC(C)C[C@@H](CN[C@@H](CC(C)C)C(N)=O)N*; Sta = CC(C)C[C@H](N)[C@@H](O)CC(=O)O; pGlu = O=C1CC[C@@H](C(=O)O)N1
# B1: BIM-26100, pGlu-Gln-Trp-Ala-Val-Gly-His-Pheψ[CH2NH]Leu-NH2 (Litorin analog) (peptide)
# peptide: EQWAVGHFL
# modifications: pGlu at 1 (written E); reduced peptide bond ψ[CH2NH] between Phe 8 and Leu 9; C-terminal amide
# Assays:
# [1] = target: T1, 3T3 fibroblast bombesin receptors (3T3 GRP receptor) (Mus musculus, UniProt P21729); test: In vitro inhibition of [125I]GRP binding to 3T3 fibroblast bombesin receptors; design: species or system murine; details: for activity in the 3T3 GRP receptor binding assay (in words): Table 1
# T1 construct: Membranes from various tissues (rat brain, rat pancreas, rat anterior pituitary, SCLC, 3T3 cells) are prepared by homogenization; endogenous in cells; host or cells: 3T3 fibroblasts (membrane preparation)
# Description: Phase 4—In Vitro Inhibition of [^125I] Gastrin Releasing Peptide (GRP) Binding to Bombesin Receptors
# Membranes from various tissues (rat brain, rat pancreas, rat anterior pituitary, SCLC, 3T3 cells) are prepared by homogenization in 50 mM TrisHCl containing 0.1% bovine serum albumin and 0.1 mg/ml bacitracin followed by two centrifugations (39,000×g×15 min., 4° C.) with an intermediate resuspension in-fresh buffer. For assay, aliquots […] are incubated with 0.5 nM [^125I]GRP (˜2000 Ci/mmol, Amersham Corp.) and various concentrations of the test compounds in a final volume of 0.5 ml. After a 30 minute incubation at 4° C., the binding reaction is terminated by rapid filtration through Whatman GF/C filters that have been pre-soaked in 0.3% aqueous polethyleneimine to reduce the level of nonspecific binding. The filters and tubes are washed three times with 4 ml aliquots of ice-cold buffer, and the radioactivity trapped on the filters is counted by gamma-spectrometry. Specific binding is defined as the total. [^125I]GRP bound minus that bound in the presence of 1000 nM. bombesin or a related peptide.
# (§1) A number of analogs of bombesin or GRP, each containing a non-peptide bond or a statine, AHPPA, or ACHPA, β-amino acid, or γ-amino acid residue, can be synthesized and tested in one or more of the above-described Phase 1-7 assays; the results of Phase 1 and 2 tests are given in Table 1 attached hereto. […] (3T3 GRP receptor and thymidine uptake data are expressed in IC50 (nM).) Table 1 also gives results for non-peptide bond-containing analogs of one other naturally-occurring peptide, Neuromedin C, whose C-terminal seven amino acids are similar to those of bombesin and GRP. (In Table 1, “Litorin” indicates a 9 residue peptide analog or its derivative, whereas “Neuromedin C” indicates a 10 residue analog or its derivative.)
# swiss 3T3 cells = swiss 3T3 cells (Mus musculus, UniProt P21729); test: Bombesin-stimulated [3H]thymidine uptake by cultured 3T3 cells; assay type: cell-based, murine; details: Table 1
# Description: Phase 1—3T3 Peptide Stimulated [^3H] Thymidine Uptake Assay
# Cell Culture. Stock cultures of swiss 3T3 cells are grown in Dulbecco's Modified Eagles Medium (DMEM) supplemented with 10% fetal calf serum in humidified atmosphere of 10% CO2/90% air at 37° C. For experimental use, the cells are seeded into 24-well cluster trays and used four days after she last change of medium. The cells are arrested in the G1/G0 phase of the cell cycle by changing to serum-free DMEM 24 hours prior to the thymidine uptake assay.
# Assay of DNA Synthesis. The cells are washed twice with 1 ml aliquots of DMEM (-serum) then incubated with DMEM (-serum), 0.5 μM [methyl-^3H] thymidine (20 Ci/mmole, New England Nuclear), bombesin (3 nM), and initially four concentrations of the test compounds (1, 10, 100, 1000 nM) in a final volume of 1.0 ml. After 28 hours at 37° C., [methyl-^3H] thymidine incorporation into acid-insoluble pools is assayed as follows. The cells are washed twice with ice-cold 0.9% NaCl (1 ml aliquots), and acid soluble radioactivity is removed by a 30 min. (4° C.) incubation with 5% trichloroacetic acid (TCA). The cultures are then washed once (1 ml) with 95% ethanol and solubilized by a 30 min. incubation (1 ml) with 0.1N NaOH. The solubilized material is transferred to vials containing 10 ml ScintA (Packard), and the radioactivity is determined by liquid scintillation spectrometry.
# as §1
# [2] = Body weight (minus tumor weight) during BIM-26100 treatment of tumor-bearing animals; assay type: in vivo, athymic nude females; details: for Body Weight(gm) Day 0 / Body Weight(gm) Day 18 / Body Weight(gm) Day 28: 50 μg/inj., b.i.d., QD1-28, tumor weight subtracted
# Description: (§2) These observations prompted us to evaluate the effect of BIM-26100 on the in vivo growth of the SCLC tumor cell line described in Phase 6. Twenty athymic nude females, 5 to 6 weeks of age, were implanted on day 0 with the NCI-H69 human SCLC, individually identified and then randomized into the following vehicle control and test groups:
# (§3) Growth of NCI-H69 xenografts and the tumor growth inhibitory activity of the bombesin antagonist BIM-26100 (pGlu-Gln-Trp-Ala-Val-Gly-His-Pheψ[CH2NH]Leu-NH2) are illustrated as tumor growth curves in FIG. 1, and relative tumor sizes in Table 2. […] The effectiveness of the antitumor activity of BIM-26100 is evident in view of the large inoculum of NCI-H69 tumor cells (i.e. the equivalent of 5 confluent 75 cm^2 cell culture flasks per animal) and the agglomerated condition of the cells. In confluent flasks, NCI-H69 agglomerates are macroscopically visible and together resemble a metastatic tumor colony. Many such tumor colonies were implanted per animal. The dose of BIM-26100 […] and is not optimal. Higher doses of BIM-26100 may be administered, as indicated by body weight gain (minus tumor weight) gain during the course of treatment (Table 3).
# NCI-H69 human SCLC = test: In vivo antitumor activity, NCI-H69 small cell lung carcinoma xenografts; details: for Tumor Size Day 18 (mm) / % Test/Control (Day 18) / % Test/Control (Day 28) / Tumor Size Day 28 (mm): 50 μg/inj., b.i.d., QD1-28; for Tumor Size Day 18 (mm) / Tumor Size Day 28 (mm): mean ± SD
# Description: Phase 6—In Vivo Antitumor Activity
# NCI-H69 small cell lung carcinoma cells were transplanted from in vitro culture by implanting each animal with the equivalent of 5 confluent 75 cm^2 tissue culture flasks in the right flank. In vitro NCI-H69 cells grow as a suspension of cellular aggregates. Therefore, no attempt was made to disaggregate the cell agglomerates by physical or chemical means. Tumor size was calculated as the average of two diameters, i.e., (length and width/2) mm.
# as §2, §3
# [3] = target: 3T3 fibroblast bombesin receptors (murine (3T3 murine fibroblasts), UniProt P21729); test: inhibition of [125I]GRP binding to 3T3 cell membranes
# [4] = target: 3T3 fibroblast bombesin receptors (murine (3T3 murine fibroblasts)) (UniProt P21729)
# [5] = inhibition of [125I]GRP binding, 3T3 membranes, read-out: 3T3 GRP Receptor IC50
# T1 sequence (P21729 whole entry): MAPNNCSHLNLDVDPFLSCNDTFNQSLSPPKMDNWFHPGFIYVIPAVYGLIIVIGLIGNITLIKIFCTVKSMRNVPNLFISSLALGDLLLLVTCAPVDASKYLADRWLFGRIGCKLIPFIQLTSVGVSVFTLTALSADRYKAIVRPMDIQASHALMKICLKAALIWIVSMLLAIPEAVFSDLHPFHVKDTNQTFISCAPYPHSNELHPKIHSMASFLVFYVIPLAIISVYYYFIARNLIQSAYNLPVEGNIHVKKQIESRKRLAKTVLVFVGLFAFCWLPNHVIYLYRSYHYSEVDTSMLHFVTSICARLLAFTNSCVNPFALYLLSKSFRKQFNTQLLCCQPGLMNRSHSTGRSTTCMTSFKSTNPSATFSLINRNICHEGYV
# Sequence of 3T3 fibroblast bombesin receptors (murine (3T3 murine fibroblasts)) (P21729 whole entry): as above
# Sequence of swiss 3T3 cells (P21729 whole entry): as above
molecule,measurement,setting,value
"CC(C)C[C@@H](CN[C@@H](CC(C)C)C(N)=O)NC(=O)[C@H](Cc1c[nH]cn1)NC(=O)CNC(=O)[C@@H](NC(=O)[C@H](C)NC(=O)[C@H](Cc1c[nH]c2ccccc12)NC(=O)[C@H](Cc1c[nH]cn1)NC(=O)[C@H](CC(N)=O)NC(=O)CN)C(C)C [BIM-26092, Gly-Asn-His-Trp-Ala-Val-Gly-His-Leuψ[CH2NH]Leu-NH2] (H-GNHWAVGH-X2)",activity in the 3T3 GRP receptor binding assay (in words),[1],antagonists
same,activity in the 3T3 thymidine uptake assay (in words),swiss 3T3 cells,antagonists
"CC(C)C[C@H](NC[C@H](Cc1ccccc1)NC(=O)[C@H](Cc1c[nH]cn1)NC(=O)CNC(=O)[C@@H](NC(=O)[C@H](C)NC(=O)[C@H](Cc1c[nH]c2ccccc12)NC(=O)[C@H](CCC(N)=O)NC(=O)[C@@H]1CCC(=O)N1)C(C)C)C(N)=O [BIM-26100, pGlu-Gln-Trp-Ala-Val-Gly-His-Pheψ[CH2NH]Leu-NH2] ([pGlu]QWAVGH-X1)",activity in the 3T3 GRP receptor binding assay (in words),[1],most active
same,Body Weight(gm) Day 0,[2]; s.c. inf.,17.7 gm
same,Body Weight(gm) Day 18,[2]; s.c. inf.,20.4 gm
same,Body Weight(gm) Day 28,[2]; s.c. inf.,21.1 gm
same,Body Weight(gm) Day 0,[2]; s.c.,16.9 gm
same,Body Weight(gm) Day 18,[2]; s.c.,19.2 gm
same,Body Weight(gm) Day 28,[2]; s.c.,19.1 gm
same,local or systemic toxicity (in words),[2]; judged from body weight gain during treatment,completely lacks local or systemic toxicity
same,Tumor Size Day 18 (mm),NCI-H69 human SCLC; s.c. inf. (infused around tumor),7.6 ± 1.56 mm
same,% Test/Control (Day 18),NCI-H69 human SCLC; s.c. inf.,70%
same,% Test/Control (Day 28),NCI-H69 human SCLC; s.c. inf.,86%
same,Tumor Size Day 28 (mm),NCI-H69 human SCLC; s.c. inf.,13.7 ± 0.67 mm
same,% Test/Control (Day 18),NCI-H69 human SCLC; s.c.,93%
same,Tumor Size Day 18 (mm),NCI-H69 human SCLC; s.c.,10.1 ± 1.47 mm
same,% Test/Control (Day 28),NCI-H69 human SCLC; s.c.,108%
same,Tumor Size Day 28 (mm),NCI-H69 human SCLC; s.c.,17.3 ± 1.96 mm
same,tumor growth inhibitory activity (in words),NCI-H69 human SCLC; s.c. infusion around the tumor,significantly inhibited tumor growth
"CC(C)C[C@@H](CN[C@@H](CC(C)C)C(N)=O)NC(=O)[C@H](Cc1c[nH]cn1)NC(=O)[C@@H](C)NC(=O)[C@@H](NC(=O)[C@H](C)NC(=O)[C@H](Cc1c[nH]c2ccccc12)NC(=O)[C@H](Cc1c[nH]cn1)NC(=O)[C@H](CC(N)=O)NC(=O)[C@@H](C)N)C(C)C [BIM-26105, D-Ala-Asn-His-Trp-Ala-Val-D-ALa-His-Leuψ[CH2CH]Leu-NH2] (H-[dA]NHWAV[dA]H-X2; N-terminus assumed)",IC50,[1],107 nM
same,activity in the 3T3 GRP receptor binding assay (in words),[1],antagonists
same,activity in the 3T3 thymidine uptake assay (in words),swiss 3T3 cells,antagonists
"CC(C)C[C@@H](CN[C@@H](CC(C)C)C(N)=O)NC(=O)[C@H](Cc1c[nH]cn1)NC(=O)[C@@H](C)NC(=O)[C@@H](NC(=O)[C@H](C)NC(=O)[C@H](Cc1c[nH]c2ccccc12)NC(=O)[C@H](Cc1c[nH]cn1)NC(=O)[C@@H](C)N)C(C)C [BIM-26106, desGly-D-Ala-His-Trp-Ala-Val-D-ALa-His-Leuψ[CH2CH]Leu-NH2] (H-[dA]HWAV[dA]H-X2; N-terminus assumed)",activity in the 3T3 GRP receptor binding assay (in words),[1],antagonists
same,IC50,[1]; [5],401 nM
same,activity in the 3T3 thymidine uptake assay (in words),swiss 3T3 cells,antagonists
"CC(C)C[C@@H](CN[C@@H](CC(C)C)C(N)=O)NC(=O)[C@H](Cc1c[nH]cn1)NC(=O)CNC(=O)[C@@H](NC(=O)[C@H](C)NC(=O)[C@H](Cc1c[nH]c2ccccc12)NC(=O)[C@H](Cc1c[nH]cn1)NC(=O)[C@H](N)Cc1ccccc1)C(C)C [BIM-26107, D-Phe-His-Trp-Ala-Val-Gly-His-Leuψ[CH2NH]Leu-NH2] (H-[dF]HWAVGH-X2)",activity in the 3T3 GRP receptor binding assay (in words),[1],antagonists
same,IC50,[1]; [5],199 nM
same,activity in the 3T3 thymidine uptake assay (in words),swiss 3T3 cells,antagonists
"CC(=O)N[C@H](C)C(=O)N[C@@H](Cc1c[nH]cn1)C(=O)N[C@@H](Cc1c[nH]c2ccccc12)C(=O)N[C@@H](C)C(=O)N[C@H](C(=O)NCC(=O)N[C@@H](Cc1c[nH]cn1)C(=O)N[C@H](CN[C@@H](CC(C)C)C(N)=O)CC(C)C)C(C)C [BIM-26108, N-Ac-D-Ala-His-Trp-Ala-Val-Gly-His-Leuψ[CH2NH]Leu-NH2] (Ac-[dA]HWAVGH-X2)",IC50,[1]; [5],841 nM
same,activity in the 3T3 thymidine uptake assay (in words),swiss 3T3 cells,negative results
"CC(C)C[C@H](NC(=O)[C@H](Cc1c[nH]cn1)NC(=O)CNC(=O)[C@@H](NC(=O)[C@H](C)NC(=O)[C@H](Cc1c[nH]c2ccccc12)NC(=O)[C@H](CCC(N)=O)NC(=O)[C@@H]1CCC(=O)N1)C(C)C)[C@@H](O)CC(N)=O [BIM-26120, pGlu-Gln-Trp-Ala-Val-Gly-His-Sta-NH2] ([pGlu]QWAVGH[Sta]-NH2)",activity in the 3T3 thymidine uptake assay (in words),swiss 3T3 cells,potent antagonists
"FQWAVGHL (D-Phe at 1; C-terminal amide) [BIM-26122, D-Phe-Gln-Trp-Ala-Val-Gly-His-Leu-NH2 (Litorin analog)]",IC50,[3],5.9 nM
"GNHWAVGHLL-NH2 (also: reduced bond ψ[CH2NH] between Leu9 and Leu10) [BIM-26092, Gly-Asn-His-Trp-Ala-Val-Gly-His-Leuψ[CH2NH]Leu-NH2 (Neuromedin C analog)]",IC50,[3],242 nM
same,"bombesin-stimulated [3H]Thymidine uptake, IC50",[4],466 nM
B1,IC50,[3],23 nM
same,"bombesin-stimulated [3H]Thymidine uptake, IC50",[4],26 nM
"[pGlu]QWAVGHLL-NH2 (also: reduced bond ψ[CH2NH] between Leu8 and Leu9) [BIM-26101, pGlu-Gln-Trp-Ala-Val-Gly-His-Leuψ[CH2NH]Leu-NH2 (Litorin analog)]",IC50,[3],118 nM
same,"bombesin-stimulated [3H]Thymidine uptake, IC50",[4],296 nM

# Source: US20050026827A1, “Octapeptide bombesin analogs” (Societe de Conseils de Recherches et d'Applications …, priority 1987, published 2005)
